Values of other authors in patent publication US20200390965A1, “TAILORED DOSE OF CONTRAST AGENT” (GE HEALTHCARE AS, priority 2017, published 2020).

Settings: powder form; aggregates dissolve very slowly

solubility in water | Structure (SMILES)
highly soluble in water | CC(=O)N(CC(O)CO)c1c(I)c(C(=O)NCC(O)CO)c(I)c(C(=O)NCC(O)CO)c1I (centres unmarked) [iohexol]
highly soluble in water | CC(=O)N(CC(O)CN(C(C)=O)c1c(I)c(C(=O)NCC(O)CO)c(I)c(C(=O)NCC(O)CO)c1I)c1c(I)c(C(=O)NCC(O)CO)c(I)c(C(=O)NCC(O)CO)c1I (centres unmarked) [iodixanol]
